# B1: lambda gam: protein used by λ phage to inhibit E. coli RecB; overexpressed from an arabinose-inducible vector (protein, UniProt P03702 1-138, looked up)
# Host-nuclease inhibitor …: MDINTETEIKQKHSLTPFPVFLISPAFRGRYFHSYFRSSAMNAYYIQDRLEAQSWARHYQQLAREEKEAELADDMEKGLPQHLFESLCIDHLQRHGASKKSITRAFDDDVEFQERMAEHIRYMVETIAHHQVDIDSEV
# Legend:
# [1] = tested on: E. coli
# [2] = tested on: K. pneumoniae; format: in vivo; details: mice; wild type vs ΔrecB K. pneumoniae; 0.064-15 mg/kg/day ciprofloxacin; 48 hour endpoint; FIG. 6
# [3] = tested on: E. coli; format: cell-based; details: for enhancement of the activity of ciprofloxacin: at 25 μM
# [4] = tested on: E. coli ΔrecB strains; format: cell-based; details: putative ΔrecB transductants and parental ΔrecB strain
# [5] = tested on: P. aeruginosa; assay: Effect of gam expression on ciprofloxacin efficacy in P. aeruginosa; format: cell-based
# [6] = tested on: E. coli; assay: Effect of gam expression on ciprofloxacin efficacy in E. coli; format: cell-based
molecule,measurement,setting,value
O=C(O)c1cn(C2CC2)c2cc(N3CCNCC3)c(F)cc2c1=O [ciprofloxacin],cells killed,[1],99%
same,reduction in CFU in thigh (log CFU/gm of thigh),[2],significantly greater reduction in CFU for the recB mutants relative to the wild type strain
Nc1ccc2noc3c2c1C(=O)c1ccccc1-3 [Formula Ia],MIC shift in ciprofloxacin responsiveness,[3],10 ×
CO[C@@]12[C@H](COC(N)=O)C3=C(C(=O)C(C)=C(N)C3=O)N1C[C@@H]1N[C@@H]12 [Mitomycin C],"Mitomycin C MIC of ΔrecB strains, lower compared to recB+ strains",[4],about 8 fold
Cn1c2ccccc2n2c3cnccc3c(=O)c(C#N)c12 [Formula IIc],enhancement of the activity of ciprofloxacin,[3],enhanced the activity of ciprofloxacin
Cn1c2ccccc2n2c3ncccc3c(=O)c(C#N)c12 [Formula IIb],enhancement of the activity of ciprofloxacin,[3],enhanced the activity of ciprofloxacin
B1,effect of lambda gam overexpression on ciprofloxacin sensitivity,[5]; strain lacking the RecB target (RTC1019) relative to empty vector strain (RTC1016),no effect
same,decrease in the ciprofloxacin MIC on overexpression of lambda gam,"[5]; wild-type P. aeruginosa (RTC1017) and gyrA(S831) mutant (RTC1018) relative to empty vector controls (RTC1014, RTC1015)",2-4 fold
same,effect of lambda gam overexpression on ciprofloxacin sensitivity,[6]; strain lacking the RecB target (RTC0148) relative to empty vector strain (RTC0147),no effect
same,decrease in the ciprofloxacin IC50 on overexpression of lambda gam,"[6]; wild-type E. coli (RTC0142) and gyrA(S83L) (RTC0144) relative to empty vector controls (RTC0141, RTC0143)",5-8 fold

# — patent US20060286574A1 (priority 2005, published 2006)
